Some results are limits rather than exact numbers.

The nature of data set [1]: Human pharmacokinetic study, urine (DART TOF-MS). In kind it is in vivo. The method, then:
(§1) Cranberry extracts 5 and 6 were prepared by HerbalScience Singapore Pte. Ltd. and prepared as 150-mg and 140-mg capsules, respectively. Each pharmacokinetic study (1 per extract) consisted of five healthy consenting adults ranging in age from 25 to 50 were instructed not to consume foods rich in phenolics 24 hours prior to the initiation of the study. A certified individual collected urine samples at several time intervals between 0 and 480 minutes after two capsules of a cranberry extract were ingested immediately after the time zero time point. Blood samples were handled with approved protocols and precautions, centrifuged to remove cells and the serum fraction was collected and frozen. Blood was not treated with heparin to avoid any analytical interference. Serum samples were stored frozen at −20° C. until analysis. The serum was extracted with an equal volume of neat ethanol (USP) to minimize background of proteins, peptides, and polysaccharides present in serum. The ethanol extract was centrifuged at 9300×g for 10 minutes at 4° C., the supernatant was removed, concentrated to 200 μL volume which was then used for DART TOF-MS analyses (FIG. 10). Urine samples were handled with approved protocols and precautions and frozen. Serum samples were stored frozen until analysis. The urine samples were analyzed neat by DART TOF-MS (FIGS. 11 and 12).

A short description of data set [2]: Human pharmacokinetic study, serum (DART TOF-MS). The format is in vivo. Particulars: 5 healthy adults, Extract 5 300 mg oral. The method, then: as §1

As to `O=CC=Cc1ccccc1` [cinnamaldehyde], in data set [1] (human, in vivo, po), the “time of appearance in urine” value is not above 1 h and the “time through which urine levels increased (declined thereafter)” value was found to be 2 h. In addition, the “presence in urine at 8 hours post-ingestion” value (shortened to “presence in urine”) in data set [1] (in vivo, po) is on record as “still present”.

For the compound `COc1ccc(C2COc3cc(O)ccc3C2)c(O)c1` (stereo not shown) [vestitol], in data set [1] (in vivo, po), the “presence in urine” value was “still present”, the “time of appearance in urine” value is not above 1 h and the “time through which urine levels increased (declined thereafter)” value was found to be 2 h.

In the case of `C[C@@H](O)[C@H](N)C(=O)O` [L-threonine], in data set [1] (human, in vivo, po), the “time of appearance in urine” value is not above 1 h and the “time through which urine levels increased (declined thereafter)” value came to 2 h.

With S-petasine, in data set [2], the “time after which undetectable in serum” value amounted to 180 min and the “time through which serum levels increased (declined thereafter)” value is given as “about 40 minutes”. In addition, the “time through which urine levels increased (declined thereafter)” value in data set [1] (two vegcaps Extract 6 oral) was 2 h.

`CC1=CC(=O)CC(C)(C)[C@@]1(O)/C=C/C(C)=C\C(=O)O` [abscisic acid]: in data set [2], the “time after which undetectable in serum” value worked out at 180 min and the “time through which serum levels increased (declined thereafter)” value is “about 40 minutes”. Besides, in data set [1] (Extract 5 300 mg oral), the “abundance in urine relative to other bioactives” value is recorded as “most abundant” and the “time of peak level in urine” value was determined as 2 h. For the same compound, in data set [1] (two vegcaps Extract 6 oral), the “presence in urine” value is recorded as “still present” and the “time through which urine levels increased (declined thereafter)” value was 2 h.

Take `NCC(=O)CCC(=O)O` [aminolevulenic acid]: in data set [1] (in vivo, po), the “time of appearance in urine” value is not above 1 h and the “time through which urine levels increased (declined thereafter)” value was 2 h.

`O=C(O)c1ccc(O)cc1` [4-hydroxybenzoic acid]: in data set [1] (human, in vivo, po), the “time of appearance in urine” value was not above 1 h and the “time through which urine levels increased (declined thereafter)” value was determined as 2 h. The “presence in urine” value in data set [1] (in vivo, po) is listed as “still present”.

Consider `c1ccc(-c2cc3ccccc3[nH]2)cc1` [α-phenylindol], for which, in data set [1] (in vivo, po), the “presence in urine” value is “still present”, the “time of appearance in urine” value is not above 1 h and the “time through which urine levels increased (declined thereafter)” value came out at 2 h.

In the case of chitosan, in data set [1] (in vivo, po), the “presence in urine” value is recorded as “still present”, the “time of appearance in urine” value was not above 1 h and the “time through which urine levels increased (declined thereafter)” value was 2 h.

(Values after US20100028469A1, “Extracts of Cranberry and Methods of Using Thereof” (priority 2008, published 2010).)
